Measured values published in ChEMBL document CHEMBL1201862, “PubChem BioAssay data set” (2004).
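Grown in 96-well plates, cells were treated for 48 hours with each compound at five concentrations. Insufficient inhibition: endpoint recorded as highest concentration tested. GI50 marks 50% less growth.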 The source made the active and inactive calls. Rule as the data show it: active = GI50 up to about 1.1 µM and inactive = higher.

What was measured:
Test in all cases: inhibition of tumour cell growth, NCI panel, 48 h
OVCAR-3 = system: OVCAR-3
UACC-62 = system: UACC-62
HCC 2998 = system: HCC 2998
U-251 = system: U-251
KM-20L2 = system: KM-20L2
HOP-18 = system: HOP-18
MCF7 = system: MCF7
A498 = system: A498
NCI/ADR-RES = system: NCI/ADR-RES
NCI-H522 = system: NCI-H522
DLD-1 = system: DLD-1
XF498 = system: XF498
SR = system: SR
T47D = system: T47D
DU-145 = system: DU-145
MDA-MB-231 = system: MDA-MB-231
PC-3 = system: PC-3
SNB-78 = system: SNB-78
DMS-114 = system: DMS-114
ACHN = system: ACHN

## Cc1cc(NC(=S)Nc2ccccc2)c(NC(=S)Nc2ccccc2)cc1C
OVCAR-3
  GI50: 21.1 µM (inactive)
UACC-62
  GI50: 18.2 µM (inactive)
HCC 2998
  GI50: 20.6 µM (inactive)
U-251
  GI50: 15.7 µM (inactive)
KM-20L2
  GI50: 36.7 µM (inactive)
HOP-18
  GI50: 43.2 µM (inactive)
MCF7
  GI50: 26.6 µM (inactive)
A498
  GI50: 36.1 µM (inactive)
NCI/ADR-RES
  GI50: 11.5 µM (inactive)
NCI-H522
  GI50: 7.78 µM (inactive)
DLD-1
  GI50: 20.4 µM (inactive)
XF498
  GI50: 16.4 µM (inactive)

## CCOc1ncn(-c2ccc(NC(=S)Nc3ncccn3)cc2)n1
OVCAR-3
  GI50: 37.7 µM (inactive)
SR
  GI50: 24 µM (inactive)
UACC-62
  GI50: 28.8 µM (inactive)
T47D
  GI50: 21.7 µM (inactive)
HCC 2998
  GI50: 25.9 µM (inactive)
U-251
  GI50: > 100 µM (inactive)
DU-145
  GI50: 66.8 µM (inactive)
MDA-MB-231
  GI50: 24.8 µM (inactive)
MCF7
  GI50: 32.7 µM (inactive)
NCI-H522
  GI50: 17.4 µM (inactive)
PC-3
  GI50: 46.5 µM (inactive)

## O=C(CCN1CCOCC1)/C(=C/c1ccccc1)c1ccccc1
OVCAR-3
  GI50: 3.76 µM (inactive)
UACC-62
  GI50: 2.49 µM (inactive)
HCC 2998
  GI50: 15 µM (inactive)
U-251
  GI50: 3.99 µM (inactive)
KM-20L2
  GI50: 9.82 µM (inactive)
SNB-78
  GI50: 5.51 µM (inactive)
DMS-114
  GI50: 3.06 µM (inactive)
HOP-18
  GI50: 16.7 µM (inactive)
MCF7
  GI50: 4.28 µM (inactive)
A498
  GI50: 10.1 µM (inactive)
NCI/ADR-RES
  GI50: 2.48 µM (inactive)
NCI-H522
  GI50: 1.77 µM (inactive)
DLD-1
  GI50: 1.89 µM (inactive)
XF498
  GI50: 6.5 µM (inactive)

## O=C(Nc1ccccc1C(=O)NCCCO)/C(=C/c1ccccc1O)NC(=O)c1ccccc1
OVCAR-3
  GI50: 48.8 µM (inactive)
SR
  GI50: > 100 µM (inactive)
UACC-62
  GI50: 19.5 µM (inactive)
T47D
  GI50: 16.3 µM (inactive)
HCC 2998
  GI50: > 100 µM (inactive)
U-251
  GI50: 30 µM (inactive)
DU-145
  GI50: > 81.8 µM (inactive)
MDA-MB-231
  GI50: 26.7 µM (inactive)
MCF7
  GI50: 5.36 µM (inactive)
A498
  GI50: > 91.2 µM (inactive)
NCI/ADR-RES
  GI50: 17 µM (inactive)
ACHN
  GI50: 30.8 µM (inactive)
NCI-H522
  GI50: 25.2 µM (inactive)
PC-3
  GI50: 33.1 µM (inactive)

## CCP(=O)(CC)C(Cl)(Cl)C(O)C(Cl)(Cl)Cl (stereo not given)
OVCAR-3
  GI50: > 100 µM (inactive)
SR
  GI50: > 100 µM (inactive)
T47D
  GI50: > 100 µM (inactive)
HCC 2998
  GI50: > 100 µM (inactive)
U-251
  GI50: > 100 µM (inactive)
DU-145
  GI50: > 100 µM (inactive)
MDA-MB-231
  GI50: > 100 µM (inactive)
MCF7
  GI50: > 100 µM (inactive)
NCI/ADR-RES
  GI50: > 100 µM (inactive)
ACHN
  GI50: > 100 µM (inactive)
NCI-H522
  GI50: > 100 µM (inactive)
PC-3
  GI50: > 100 µM (inactive)

## Cc1c(C)c2ccc(OCC(O)COC(C)C)c(C)c2oc1=O (stereo not given)
OVCAR-3
  GI50: > 100 µM (inactive)
SR
  GI50: 26.7 µM (inactive)
UACC-62
  GI50: 38.5 µM (inactive)
T47D
  GI50: > 100 µM (inactive)
HCC 2998
  GI50: 24.8 µM (inactive)
U-251
  GI50: 16.2 µM (inactive)
DU-145
  GI50: > 100 µM (inactive)
MCF7
  GI50: 24.4 µM (inactive)
NCI/ADR-RES
  GI50: 41.5 µM (inactive)
ACHN
  GI50: 44.3 µM (inactive)
NCI-H522
  GI50: 17.2 µM (inactive)
PC-3
  GI50: 45.2 µM (inactive)

## CCOC(=O)Cc1cc(OC)c(OC)cc1/C(Cl)=C(\C=O)c1ccc(OC)c(OC)c1
OVCAR-3
  GI50: 13.8 µM (inactive)
UACC-62
  GI50: 16.4 µM (inactive)
U-251
  GI50: 17.5 µM (inactive)
KM-20L2
  GI50: 15.3 µM (inactive)
SNB-78
  GI50: 22.3 µM (inactive)
DMS-114
  GI50: 18.2 µM (inactive)
HOP-18
  GI50: 28.7 µM (inactive)
ACHN
  GI50: 20.6 µM (inactive)
DLD-1
  GI50: 16.3 µM (inactive)
XF498
  GI50: 20 µM (inactive)

## O=C1c2cccc(O)c2C(=O)c2c(O)cc(CO)cc21 [ALOE-EMODIN]
SR
  GI50: 32.9 µM (inactive)
HCC 2998
  GI50: 83.9 µM (inactive)
U-251
  GI50: > 100 µM (inactive)
KM-20L2
  GI50: 39.4 µM (inactive)
SNB-78
  GI50: > 100 µM (inactive)
DMS-114
  GI50: 28.2 µM (inactive)
HOP-18
  GI50: > 100 µM (inactive)
A498
  GI50: 74.3 µM (inactive)
ACHN
  GI50: 32.7 µM (inactive)
NCI-H522
  GI50: 22.8 µM (inactive)
DLD-1
  GI50: 32.5 µM (inactive)
XF498
  GI50: > 100 µM (inactive)

## CCOC(=O)NC(Nc1ncccn1)(C(F)(F)F)C(F)(F)F
OVCAR-3
  GI50: > 100 µM (inactive)
SR
  GI50: > 100 µM (inactive)
UACC-62
  GI50: > 100 µM (inactive)
T47D
  GI50: > 100 µM (inactive)
HCC 2998
  GI50: > 100 µM (inactive)
U-251
  GI50: > 100 µM (inactive)
DU-145
  GI50: > 100 µM (inactive)
MDA-MB-231
  GI50: > 100 µM (inactive)
MCF7
  GI50: > 100 µM (inactive)
A498
  GI50: > 100 µM (inactive)
ACHN
  GI50: > 100 µM (inactive)
NCI-H522
  GI50: > 100 µM (inactive)

## CC(Sc1ccccc1)C(CO)(CO)[N+](=O)[O-] (stereo not given)
OVCAR-3
  GI50: 15.2 µM (inactive)
SR
  GI50: 2.34 µM (inactive)
UACC-62
  GI50: 15.8 µM (inactive)
HCC 2998
  GI50: 17.2 µM (inactive)
U-251
  GI50: 13.3 µM (inactive)
KM-20L2
  GI50: 17.2 µM (inactive)
SNB-78
  GI50: 22.3 µM (inactive)
DMS-114
  GI50: 17.2 µM (inactive)
HOP-18
  GI50: 21.9 µM (inactive)
ACHN
  GI50: 16.9 µM (inactive)
NCI-H522
  GI50: 13.5 µM (inactive)
DLD-1
  GI50: 14.3 µM (inactive)

## CC1=C2C(O)C(C(C)C(=O)N(C)C)CCC2(C)C=CC1=O (stereo not given)
OVCAR-3
  GI50: > 100 µM (inactive)
UACC-62
  GI50: > 100 µM (inactive)
HCC 2998
  GI50: > 100 µM (inactive)
U-251
  GI50: > 100 µM (inactive)
KM-20L2
  GI50: > 100 µM (inactive)
SNB-78
  GI50: > 100 µM (inactive)
DMS-114
  GI50: > 100 µM (inactive)
HOP-18
  GI50: > 100 µM (inactive)
MCF7
  GI50: > 100 µM (inactive)
A498
  GI50: > 100 µM (inactive)
NCI/ADR-RES
  GI50: > 100 µM (inactive)
NCI-H522
  GI50: > 100 µM (inactive)
DLD-1
  GI50: > 100 µM (inactive)
XF498
  GI50: > 100 µM (inactive)

## CC1=Nc2c(N)nc(N)nc2N(C)C1
OVCAR-3
  GI50: > 100 µM (inactive)
UACC-62
  GI50: > 100 µM (inactive)
T47D
  GI50: > 100 µM (inactive)
U-251
  GI50: > 100 µM (inactive)
DU-145
  GI50: > 100 µM (inactive)
MDA-MB-231
  GI50: > 100 µM (inactive)
MCF7
  GI50: > 100 µM (inactive)
ACHN
  GI50: > 100 µM (inactive)
PC-3
  GI50: > 100 µM (inactive)

## O=C(N/C(=C\c1ccccc1[N+](=O)[O-])c1nc2ccccc2[nH]1)c1ccccc1
OVCAR-3
  GI50: 68.1 µM (inactive)
SR
  GI50: 37.6 µM (inactive)
UACC-62
  GI50: 62.4 µM (inactive)
HCC 2998
  GI50: > 100 µM (inactive)
U-251
  GI50: > 100 µM (inactive)
KM-20L2
  GI50: > 100 µM (inactive)
SNB-78
  GI50: 92.7 µM (inactive)
NCI-H522
  GI50: 56.8 µM (inactive)
DLD-1
  GI50: 93.5 µM (inactive)
XF498
  GI50: > 100 µM (inactive)

## Cc1nc(Cl)c(C)c(Cl)n1
OVCAR-3
  GI50: > 100 µM (inactive)
SR
  GI50: 0.254 µM (active)
UACC-62
  GI50: > 80.4 µM (inactive)
T47D
  GI50: > 100 µM (inactive)
HCC 2998
  GI50: 99.1 µM (inactive)
U-251
  GI50: > 100 µM (inactive)
DU-145
  GI50: > 100 µM (inactive)
MDA-MB-231
  GI50: > 100 µM (inactive)
MCF7
  GI50: > 84.5 µM (inactive)
A498
  GI50: > 100 µM (inactive)
NCI/ADR-RES
  GI50: > 53 µM (inactive)
ACHN
  GI50: > 100 µM (inactive)
NCI-H522
  GI50: < 0.01 µM (active)
PC-3
  GI50: > 93.3 µM (inactive)

## Cc1nc(O)nc(O)c1/C=C/C(=O)O
OVCAR-3
  GI50: > 1000 µM (inactive)
UACC-62
  GI50: > 1000 µM (inactive)
HCC 2998
  GI50: > 1000 µM (inactive)
U-251
  GI50: > 1000 µM (inactive)
KM-20L2
  GI50: > 1000 µM (inactive)
SNB-78
  GI50: > 1000 µM (inactive)
DMS-114
  GI50: > 1000 µM (inactive)
HOP-18
  GI50: > 1000 µM (inactive)
MCF7
  GI50: > 1000 µM (inactive)
A498
  GI50: > 1000 µM (inactive)
NCI/ADR-RES
  GI50: > 1000 µM (inactive)
NCI-H522
  GI50: > 1000 µM (inactive)
DLD-1
  GI50: > 1000 µM (inactive)
XF498
  GI50: > 1000 µM (inactive)

## CCC1C(C#N)=C(O)NC(O)=C1C#N
OVCAR-3
  GI50: > 100 µM (inactive)
UACC-62
  GI50: > 100 µM (inactive)
HCC 2998
  GI50: > 100 µM (inactive)
U-251
  GI50: > 100 µM (inactive)
KM-20L2
  GI50: > 100 µM (inactive)
SNB-78
  GI50: > 100 µM (inactive)
DMS-114
  GI50: > 100 µM (inactive)
HOP-18
  GI50: > 100 µM (inactive)
A498
  GI50: > 100 µM (inactive)
ACHN
  GI50: > 100 µM (inactive)
NCI-H522
  GI50: > 100 µM (inactive)
DLD-1
  GI50: > 100 µM (inactive)
XF498
  GI50: > 100 µM (inactive)

## O=C1CCC(=O)C1=NNc1ccccc1
OVCAR-3
  GI50: > 100 µM (inactive)
UACC-62
  GI50: 8.38 µM (inactive)
HCC 2998
  GI50: > 100 µM (inactive)
U-251
  GI50: > 100 µM (inactive)
SNB-78
  GI50: > 100 µM (inactive)
DMS-114
  GI50: > 100 µM (inactive)
HOP-18
  GI50: > 100 µM (inactive)
A498
  GI50: 43.6 µM (inactive)
ACHN
  GI50: > 100 µM (inactive)
DLD-1
  GI50: > 100 µM (inactive)
